Square brackets hold non-standard residues; d marks the D form. Peptide text beside a SMILES is read from it. Dmt = Cc1cc(O)cc(C)c1C[C@H](N)C(=O)O
What was measured:
[1] = mean ± SEM
Excerpt: To analyze mitochondrial ROS emissions following MV-induced diaphragmatic oxidative stress and weakness, rats were randomly assigned to one of three experimental groups (n=12/group): (1) an acutely anesthetized control group; (2) a 12-hour MV group (MV); and 3) a 12-hour MV group treated with the mitochondrial-targeted antioxidant SS-31 (MVSS). Because of the large tissue requirement for our numerous dependent measures, six animals from each experimental group were used for the mitochondrial measures and the remaining six animals in each group were employed in all other biochemical assays.
Animals in the control group were acutely anesthetized with an intraperitoneal (IP) injection of sodium pentobarbital (60 mg/kg body weight). […] The mitochondrial-targeted antioxidant SS-31 was dissolved in saline and delivered in a bolus (loading) dose (3 mg/kg; subcutaneous injection) 15 min prior to initiation of MV. A constant intravenous infusion (0.05 mg/kg/hr) of SS-31 was maintained throughout MV.
All surgical procedures were performed using aseptic techniques. Animals in the MV groups were anesthetized with an IP injection of sodium pentobarbital (60 mg/kg body weight), tracheostomized, and mechanically ventilated with a pressure-controlled ventilator (Servo Ventilator 300, Siemens) for 12 hours with the following settings: upper airway pressure limit: 20 cm H2O, typical pressure generation above PEEP was 6-9 cm H2O, respiratory rate: 80 bpm; and PEEP: 1 cm H2O.
The carotid artery was cannulated to permit the continuous measurement of blood pressure and the collection of blood during the protocol. Arterial blood samples (100 μl per sample) were removed periodically and analyzed for arterial pO2, pCO2 and pH using an electronic blood-gas analyzer (GEM Premier 3000; Instrumentation Laboratory, Lexington, Mass.). Ventilator adjustments were made if arterial PCO2 exceeded 40 mm Hg. Arterial PO2 was maintained >60 mmHg throughout the experiment by increasing the FIO2 (22-26% oxygen).
A venous catheter was inserted into the jugular vein for continuous infusion of sodium pentobarbital (˜10 mg/kg/hr) and fluid replacement. Body temperature was maintained at 37° C. by use of a recirculating heating blanket and heart rate was monitored via a lead II electrocardiograph. Continuous care during the MV protocol included lubricating the eyes, expressing the bladder, removing airway mucus, rotating the animal, and passively moving the limbs. Animals also received an intramuscular injection of glycopyrrolate (0.18 mg/kg) every two hours during MV to reduce airway secretions.

[2] = tested on: several mammalian cell types; settings: energy-independent manner; cited from earlier work
[3] = rats at completion of 12 h MV with SS-31

Compound	Arterial PCO2 [1, 3]	Arterial PO2 [1, 3] [mm/Hg]	Arterial pH [1, 3]	Systolic blood pressure [1, 3] [mm/Hg]	Heart rate ([1]; rats at completion of 12 h MV, SS-31 3 mg/kg s.c. bolus + 0.05 mg/kg/hr i.v.) [beats/min]	Penetration of the plasma membrane [2]
Cc1cc(O)cc(C)c1C[C@H](NC(=O)[C@H](N)CCCNC(=N)N)C(=O)N[C@@H](CCCCN)C(=O)N[C@@H](Cc1ccccc1)C(N)=O [SS-31, D-Arg-2′,6′-Dmt-Lys-Phe-NH2] (H-[dR][Dmt]KF-NH2)	46 ± 1	75 ± 5	7.41 ± 0.01	108 ± 5	347 ± 7	
2′,6′-Dmt-D-Arg-Phe-Lys-NH2 [SS-02]						readily penetrates
